Key:
D04 melanoma cell line = experiment: Cell viability assay (ATP quantitation); format: cell-based, human; conditions: 50 nM, 5 days (120 hrs), vs non-targeting control
Procedure: (§1) EsiRNA, siRNA and ASO GapmeRs were transfected in a final concentration of 50 nM unless mentioned otherwise and the transfection reagent Lipofectamine 3000 (2 ul/ml) was added according to the manufacturer's instructions.
(§2) Dependent on cell doubling time, 0.7-2×10^^3 cells were seeded in 96 well plates. 1 day after seeding cells were incubated in media with oligonucleotide concentration and/or MEKi and transfection reagent. 3 (synergy experiments) or 5 (solely ASO) days after transfection Total luminescence was measured on the SynergyHT plate reader (BioTek) using Gen5 software.

MM415 melanoma cell line = experiment: Cell viability assay (ATP quantitation); format: cell-based, human; conditions: 50 nM, 5 days (120 hrs), vs non-targeting control
Procedure: as §1, §2

melanoma cell lines = experiment: Cell viability assay (ATP quantitation), melanoma panel; format: cell-based, human; conditions: 50 nM oligonucleotide, 72 hours, vs non-targeting pooled siRNA
Excerpt: Human melanoma cell line VMM39 was purchased from American Type Culture Collection (ATCC). Human melanoma cell lines D04, MM415, WM1366, WM3629, WM3211, Sk-Mel-2 and Sk-Mel-28 were a generous gift from Boris Bastian at the University of California, San Francisco. Primary human melanoma cell line Hs852.T was purchased from the Cell Culture Core Facility (CCCF) at the University of California, San Francisco. Primary human melanoma cell line AV5 was obtained from metastasis of a melanoma patient. All experimental protocols were approved by UCSF Human Research Protection Program Institutional Review Board (IRB #12-0948), all patients signed informed consent, and methods were carried out in accordance with relevant guidelines and regulations. Resistant cell lines DO4RM, MM415RM, Sk-Mel-2RM and WM3629RM were established as previously described. [Sanlorenzo, M. et al., The lincRNA MIRAT binds to IQGAPI and modulates the MAPK pathway in NRAS mutant melanoma. Sci Rep 8, 10902 (2018).] Primary human melanocytic cell lines (PHM) from infant foreskin of five healthy donors were available in our cell repository and pooled. […]
Dependent on cell doubling time, 0.7-2×10^^3 cells were seeded in 96 well plates. […] 3 (synergy experiments) or 5 (solely ASO) days after transfection Total luminescence was measured on the SynergyHT plate reader (BioTek) using Gen5 software.

[1] = test system: AV5 primary melanoma cell line; experiment: Cell viability assay (ATP quantitation); format: cell-based, human; conditions: 50 nM, 5 days (120 hrs), vs non-targeting control
Procedure: as §1, §2

[2] = test system: Hs852.T primary melanoma cell line; experiment: Cell viability assay (ATP quantitation); format: cell-based, human; conditions: 50 nM, 5 days (120 hrs), vs non-targeting control
Procedure: as §1, §2

[3] = test system: Sk-Mel-2 melanoma cell line; experiment: Cell viability assay (ATP quantitation); format: cell-based, human; conditions: 50 nM, 5 days (120 hrs), vs non-targeting control
Procedure: as §1, §2

[4] = test system: Sk-Mel-28 melanoma cell line; experiment: Cell viability assay (ATP quantitation); format: cell-based, human; conditions: 50 nM, 5 days (120 hrs), vs non-targeting control
Procedure: as §1, §2

VMM39 melanoma cell line = experiment: Cell viability assay (ATP quantitation); format: cell-based, human; conditions: 50 nM, 5 days (120 hrs), vs non-targeting control
Procedure: as §1, §2

[5] = test system: WM1366 melanoma cell line; experiment: Cell viability assay (ATP quantitation); format: cell-based, human; conditions: 50 nM, 5 days (120 hrs), vs non-targeting control
Procedure: as §1, §2

[6] = test system: WM3211 melanoma cell line; experiment: Cell viability assay (ATP quantitation); format: cell-based, human; conditions: 50 nM, 5 days (120 hrs), vs non-targeting control
Procedure: as §1, §2

[7] = test system: WM3629 melanoma cell line; experiment: Cell viability assay (ATP quantitation); format: cell-based, human; conditions: 50 nM, 5 days (120 hrs), vs non-targeting control
Procedure: as §1, §2

[8] = test system: A-172 Glioblastoma cell line; experiment: Cell viability assay (ATP quantitation); format: cell-based; conditions: 50 nM, 5 days, vs non-targeting control
Procedure: as §1, §2

A375 melanoma cell line = experiment: Cell viability assay (ATP quantitation); format: cell-based; conditions: 50 nM, 5 days, vs non-targeting control
Procedure: as §1, §2

AV4 melanoma cell line = experiment: Cell viability assay (ATP quantitation); format: cell-based; conditions: 50 nM, 5 days, vs non-targeting control
Procedure: as §1, §2

[9] = test system: H1299 lung cancer cell line; experiment: Cell viability assay (ATP quantitation); format: cell-based; conditions: 50 nM, 5 days, vs non-targeting control
Procedure: as §1, §2

[10] = test system: H2228 lung cancer cell line; experiment: Cell viability assay (ATP quantitation); format: cell-based; conditions: 50 nM, 5 days, vs non-targeting control
Procedure: as §1, §2

[11] = test system: H82 lung cancer cell line; experiment: Cell viability assay (ATP quantitation); format: cell-based; conditions: 50 nM, 5 days, vs non-targeting control
Procedure: as §1, §2

[12] = test system: H929 multiple myeloma cell line; experiment: Cell viability assay (ATP quantitation); format: cell-based; conditions: 50 nM, 5 days, vs non-targeting control
Procedure: as §1, §2

[13] = test system: HCT116 colon carcinoma cell line; experiment: Cell viability assay (ATP quantitation); format: cell-based; conditions: 50 nM, 5 days, vs non-targeting control
Procedure: as §1, §2

[14] = test system: Hs940.T melanoma cell line; experiment: Cell viability assay (ATP quantitation); format: cell-based; conditions: 50 nM, 5 days, vs non-targeting control
Procedure: as §1, §2

MM485 melanoma cell line = experiment: Cell viability assay (ATP quantitation); format: cell-based; conditions: 50 nM, 5 days, vs non-targeting control
Procedure: as §1, §2

[15] = test system: SW1271 lung cancer cell line; experiment: Cell viability assay (ATP quantitation); format: cell-based; conditions: 50 nM, 5 days, vs non-targeting control
Procedure: as §1, §2

[16] = test system: SW480 colon carcinoma cell line; experiment: Cell viability assay (ATP quantitation); format: cell-based; conditions: 50 nM, 5 days, vs non-targeting control
Procedure: as §1, §2

[17] = test system: Sk-Mel-5 melanoma cell line; experiment: Cell viability assay (ATP quantitation); format: cell-based; conditions: 50 nM, 5 days, vs non-targeting control
Procedure: as §1, §2

[18] = test system: Sk-N-AS Neuroblastoma cell line; experiment: Cell viability assay (ATP quantitation); format: cell-based; conditions: 50 nM, 5 days, vs non-targeting control
Procedure: as §1, §2

[19] = test system: T98G Glioblastoma cell line; experiment: Cell viability assay (ATP quantitation); format: cell-based; conditions: 50 nM, 5 days, vs non-targeting control
Procedure: as §1, §2

[20] = test system: U138-MG Glioblastoma cell line; experiment: Cell viability assay (ATP quantitation); format: cell-based; conditions: 50 nM, 5 days, vs non-targeting control
Procedure: as §1, §2

[21] = test system: U20S osteosarcoma cell line; experiment: Cell viability assay (ATP quantitation); format: cell-based; conditions: 50 nM, 5 days, vs non-targeting control
Procedure: as §1, §2

[22] = test system: U87-MG Glioblastoma cell line; experiment: Cell viability assay (ATP quantitation); format: cell-based; conditions: 50 nM, 5 days, vs non-targeting control
Procedure: as §1, §2

[23] = test system: WM3060 melanoma cell line; experiment: Cell viability assay (ATP quantitation); format: cell-based; conditions: 50 nM, 5 days, vs non-targeting control
Procedure: as §1, §2

[24] = test system: D04RM trametinib resistant melanoma cell line; experiment: Cell viability assay (ATP quantitation); format: cell-based; conditions: 50 nM, 5 days, vs non-targeting control
Excerpt: (§3) Human melanoma cell line VMM39 was purchased from American Type Culture Collection (ATCC). Human melanoma cell lines D04, MM415, WM1366, WM3629, WM3211, Sk-Mel-2 and Sk-Mel-28 were a generous gift from Boris Bastian at the University of California, San Francisco. Primary human melanoma cell line Hs852.T was purchased from the Cell Culture Core Facility (CCCF) at the University of California, San Francisco. Primary human melanoma cell line AV5 was obtained from metastasis of a melanoma patient. All experimental protocols were approved by UCSF Human Research Protection Program Institutional Review Board (IRB #12-0948), all patients signed informed consent, and methods were carried out in accordance with relevant guidelines and regulations. Resistant cell lines DO4RM, MM415RM, Sk-Mel-2RM and WM3629RM were established as previously described. [Sanlorenzo, M. et al., The lincRNA MIRAT binds to IQGAPI and modulates the MAPK pathway in NRAS mutant melanoma. Sci Rep 8, 10902 (2018).] Primary human melanocytic cell lines (PHM) from infant foreskin of five healthy donors were available in our cell repository and pooled. Melanoma cell lines were maintained in RPMI 1640 media supplemented with 10% (vol/vol) heat inactivated fetal bovine serum. Melanocytes were maintained in M254 medium with HMGS supplements (1× final solution). All cell lines were incubated at 37° C. under 5% CO2.
as §1, §2

[25] = test system: MM415RM trametinib resistant melanoma cell line; experiment: Cell viability assay (ATP quantitation); format: cell-based; conditions: 50 nM, 5 days, vs non-targeting control
Excerpt: as §3, §1, §2

[26] = test system: Sk-Mel-2-RM trametinib resistant melanoma cell line; experiment: Cell viability assay (ATP quantitation); format: cell-based; conditions: 50 nM, 5 days, vs non-targeting control
Excerpt: as §3, §1, §2

[27] = test system: WM3629RM trametinib resistant melanoma cell line; experiment: Cell viability assay (ATP quantitation); format: cell-based; conditions: 50 nM, 5 days, vs non-targeting control
Excerpt: as §3, §1, §2

Caspase 3+7 = experiment: Caspase Glo 3/7 assay in D04 cell line; format: cell-based, human; conditions: ASO 50 nM, 1 day, vs control ASOs
Procedure: Dependent on cell doubling time, 2-3×10^^3 cells were seeded in 96 well plates. 1 day after seeding cells were incubated in media with 50 nM oligonucleotide concentration and transfection reagent. 1 day after transfection Total luminescence was measured on the SynergyHT plate reader (BioTek) using Gen5 software. Experiments were performed in quadruplicates.

[28] = test system: AC004540.4 (TRASH) in D04 cells; experiment: MEK-inhibitor-induced upregulation, RT-qPCR; format: cell-based, human; conditions: 72 hours, vs DMSO, normalized to GAPDH
Procedure: (§4) TRIzol, Phenol:chloroform:isoamyl alcohol (125:24:1) or NucleoSpin RNA kit (TaKaRa) was used for extracting Total RNA from cells and tissues according to the manufacturer's instructions. Total RNA was quantified by NanoDrop ND-1000 (Thermo Scientific) or Quibit 4 (Thermo Fisher). 50 ng or RNA was reverse transcribed using the cDNA synthesis and gDNA removal QuantiTect Reverse Transcription Kit. Real time PCR was performed using the iTaq Universal SYBR Green Supermix, 10 ng (20 ng for RIP Assay) of cDNA and on a QuantStudio™ 5 Real-Time PCR System or a 7500 fast real time PCR system. Relative gene expression was calculated using the comparative Ct method, normalized to GAPDH or β-actin. Primer sequences are listed in Supplementary Table 1.
(§5) Cells were either treated with trametinib (MEKi) or DMSO (control). Treatment period was 72 hours. CT-values were normalized to GAPDH, error bars represent standard deviation. All experiments were performed in triplicates (n=3/group). (FIG. 5b)

[29] = test system: AC004540.4 (TRASH) in MM415 cells; experiment: MEK-inhibitor-induced upregulation, RT-qPCR; format: cell-based, human; conditions: 72 hours, vs DMSO
Procedure: as §4, §5

Compound: 5′-ACAAAGAGAGACAGGAAAUUU-3′ (chain 2 AUUUCCUGUCUCUCUUUGUUU; listed as RNA, chemistry not given here) [SEQ ID NO:45]
- cell viability decrease (D04 melanoma cell line): significant cell viability decrease
- cell viability decrease (MM415 melanoma cell line): significant cell viability decrease
- cell viability decrease (RNAi screening) (melanoma cell lines): significant cell viability decrease

Compound: AAGGAGGGTAAACGCT (chemistry not given here) [SEQ ID NO: 13, Antisense oligonucleotide targeting BX470102.3-008]
- cell viability decrease [1]: significant cell viability decrease
- cell viability decrease (D04 melanoma cell line): significant cell viability decrease
- cell viability decrease [2]: significant cell viability decrease
- cell viability decrease (MM415 melanoma cell line): significant cell viability decrease
- cell viability decrease [3]: significant cell viability decrease
- cell viability decrease [4]: significant cell viability decrease
- cell viability decrease (VMM39 melanoma cell line): significant cell viability decrease
- cell viability decrease [5]: significant cell viability decrease
- cell viability decrease [6]: significant cell viability decrease
- cell viability decrease [7]: significant cell viability decrease
- cell viability decrease [8]: significant cell viability decrease
- cell viability decrease (A375 melanoma cell line): significant cell viability decrease
- cell viability decrease (AV4 melanoma cell line): significant cell viability decrease
- cell viability decrease [9]: significant cell viability decrease
- cell viability decrease [10]: significant cell viability decrease
- cell viability decrease [11]: significant cell viability decrease
- cell viability decrease [12]: significant cell viability decrease
- cell viability decrease [13]: significant cell viability decrease
- cell viability decrease [14]: significant cell viability decrease
- cell viability decrease (MM485 melanoma cell line): significant cell viability decrease
- cell viability decrease [15]: significant cell viability decrease
- cell viability decrease [16]: significant cell viability decrease
- cell viability decrease [17]: significant cell viability decrease
- cell viability decrease [18]: significant cell viability decrease
- cell viability decrease [19]: significant cell viability decrease
- cell viability decrease [20]: significant cell viability decrease
- cell viability decrease [21]: significant cell viability decrease
- cell viability decrease [22]: significant cell viability decrease
- cell viability decrease [23]: significant cell viability decrease
- cell viability decrease [24]: significant cell viability decrease
- cell viability decrease [25]: significant cell viability decrease
- cell viability decrease [26]: significant cell viability decrease
- cell viability decrease [27]: significant cell viability decrease

Compound: GACCGTAGTTAGAAGG (GapmeR, chemically modified, pattern not given here) [SEQ ID NO: 48, GapmeR antisense oligonucleotide targeting HNRNPA2/B1]
- cell viability decrease (D04 melanoma cell line): significant cell viability decrease
- cell viability decrease (D04 melanoma cell line; listed as hnRNPA2/B1i): significant cell viability decrease
- Caspase-3 &-7 activity increase (Caspase 3+7): 1.7 fold

Compound: CC(=O)Nc1cccc(-n2c(=O)n(C3CC3)c(=O)c3c(Nc4ccc(I)cc4F)n(C)c(=O)c(C)c32)c1 [trametinib]
- AC004540.4 (TRASH) upregulation ([28]; 20 nM MEKi): 3.2 fold
- AC004540.4 (TRASH) enrichment ([28]; 40 nM MEKi): 5.4 fold
- increase of AC004540.4 (TRASH)-expression ([29]; 20 nM MEKi): 0.31 fold
- increase of AC004540.4 (TRASH)-expression ([29]; second MEKi concentration (not given)): 0.36 fold

Reference: patent publication US20250197864A1, “LNCRNA TRANSCRIPTS IN MELANOMAGENESIS” (The Regents of the University of California, priority 2021, published 2025)
